Measured values published in PubChem BioAssay AID2060495 (Molecular Pharmacology Branch, DTP, NCI, 2025).

System: 521955-158-R2-J5-PDC complex spheroid viability
Experiment: Anticancer human tumor 521955-158-R2-J5-PDC patient-derived pancreatic carcinoma cell line growth inhibition [GQUAD]
Details: for IC50: curve of first compound; for viability, T/C: stronger effect = lower value; active = viability on the fitted dose curve at most 10% of control; inactive = the rest
Excerpt: DNA G-quadruplex Stabilizer Agents in Combinations in Complex Spheroids
A high-throughput screen of multi-cell type tumor spheroids was designed to identify active combinations of DNA G-quadruplex stabilizer agents and targeted small molecules. Complex spheroids include a stromal component modeled by human endothelial cells (HUVEC) and fibroblasts modeled by human mesenchymal stem cells (MSCs). The concentration ranges selected for each drug and investigational agent were based upon clinically achievable concentrations if the clinical Cmax of the agent was known.
Compounds. The drugs and investigational agents: pidnarulex (CX-5461; NSC782164), APTO-253 (NSC789042), BRACO-19 (NSC847499), peposertib (NSC802822), ceralasertib (NSC780249), elimusertib (NSC800525), camonsertib (NSC841442), AZD-1390 (NSC803789), olaparib (NSC753686), talazoparib (NSC767125), ART-558 (NSC835418), sotorasib (NSC818433), MRTX-1133 (NSC836407), SN-38 (NSC673596), topotecan (NSC609699), etoposide (NSC141540), doxorubicin (NSC123127), gemcitabine (NSC613327), 5-fluorouracil (NSC19893), paclitaxel (NSC125973), vemurafenib (NSC761431), panobinostat (NSC761190), R-306465 (JNJ-16241199; NSC773264), adavosertib (NSC754352), TP-3654 (NSC805149), carboplatin (NSC241240), KSQ-4279 (NSC840948), and staurosporine (NSC755774) were obtained from the National Cancer Institute (NCI) Developmental Therapeutics Program Chemical Repository (34). The FDA-approved anticancer drug set is available from the NCI Developmental Therapeutics Program. […] The stock solutions were prepared in dimethyl sulfoxide (DMSO, Sigma-Aldrich, St. Louis, MO, cat. D2650) at 800-fold the tested concentration and stored at -70 degrees C prior to their use. All drugs and investigational agents were tested over a range starting from a high concentration at or near the clinical Cmax and decreasing in half-log increments. If the clinical Cmax for an agent had not been determined, the highest concentration tested was 10 microM.
2.3 Cell Culture. All cells were maintained in an incubator at 37 degrees C and 5% CO2 with 95% humidity. The PDC lines were cultured according to standard operating procedures established by the NCI PDMR. All PDCs were thawed and cultured in Matrigel-coated flasks prepared with a working solution of 1X Ham's F-12 nutrient mix, without supplementation (Invitrogen, cat. 11765054), 100 U/mL penicillin-streptomycin (Invitrogen, cat. 15140122), and 2.5% Matrigel (Corning Inc., cat. 354248) for the first three passages. The 857933-349-R-J2-PDC line was cultured in 6C/Colon 1B media, which includes advanced DMEM/F-12 (Thermo Fisher Scientific, cat. 12634028), 10 mM HEPES (Thermo Fisher Scientific, cat. 15630080), 1X GlutaMAX supplement (Thermo Fisher Scientific, cat. 35050061), 0.1 mg/mL primocin (InvivoGen, cat. ant-pm-2), 10% defined fetal bovine serum, heat inactivated (HyClone Laboratories Inc., cat. SH30070.03HI), 50% L-WRN conditioned media (ATCC, cat. CRL-3276), 1.25 mM N-Acetyl-L-cysteine (Sigma-Aldrich, cat. A9165), 10 mM nicotinamide (Sigma-Aldrich, cat. N0636), 1X B-27 supplement (Thermo Fisher Scientific, cat. 17504044), 1X N-2 supplement (Thermo Fisher Scientific, cat. 17502048), 10 microM Y-27632 dihydrochloride (Tocris Bioscience, cat. 1254), and 50 ng/mL human EGF recombinant protein (Thermo Fisher Scientific, cat. PHG0311). The 485176-168-R4-J1-PDC line was cultured in Panc media, which includes all 6C/Colon 1B media components plus 100 ng/mL human FGF-10 (Thermo Fisher Scientific, cat. 100-26), 500 nM SB-431542 (Selleckchem, cat. S1067), and gastrin (Tocris, cat. 3006).
[…]

[1] = second compound 0.0316 µM, first compound 0.0316 µM
[2] = second compound 0.0316 µM, first compound 0.1 µM
[3] = second compound 0.0316 µM, first compound 0.316 µM
[4] = second compound 0.0316 µM, first compound 1 µM
[5] = second compound 0.0316 µM, first compound 3.16 µM
[6] = second compound 0.0316 µM, first compound 10 µM
[7] = second compound 0.1 µM, first compound 0.0316 µM
[8] = second compound 0.1 µM, first compound 0.1 µM
[9] = second compound 0.1 µM, first compound 0.316 µM
[10] = second compound 0.1 µM, first compound 1 µM
[11] = second compound 0.1 µM, first compound 3.16 µM
[12] = second compound 0.1 µM, first compound 10 µM
[13] = second compound 0.316 µM, first compound 0.0316 µM
[14] = second compound 0.316 µM, first compound 0.1 µM
[15] = second compound 0.316 µM, first compound 0.316 µM
[16] = second compound 0.316 µM, first compound 1 µM
[17] = second compound 0.316 µM, first compound 3.16 µM
[18] = second compound 0.316 µM, first compound 10 µM
[19] = second compound 1 µM, first compound 0.0316 µM
[20] = second compound 1 µM, first compound 0.1 µM
[21] = second compound 1 µM, first compound 0.316 µM
[22] = second compound 1 µM, first compound 1 µM
[23] = second compound 1 µM, first compound 3.16 µM
[24] = second compound 1 µM, first compound 10 µM
[25] = second compound 3.16 µM, first compound 0.0316 µM
[26] = second compound 3.16 µM, first compound 0.1 µM
[27] = second compound 3.16 µM, first compound 0.316 µM
[28] = second compound 3.16 µM, first compound 1 µM
[29] = second compound 3.16 µM, first compound 3.16 µM
[30] = second compound 3.16 µM, first compound 10 µM
[31] = second compound 10 µM, first compound 0.0316 µM
[32] = second compound 10 µM, first compound 0.1 µM
[33] = second compound 10 µM, first compound 0.316 µM
[34] = second compound 10 µM, first compound 1 µM
[35] = second compound 10 µM, first compound 3.16 µM
[36] = second compound 10 µM, first compound 10 µM
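Also: spheroids exposed to agents for one week before reading.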

CC1COCCN1c1cc(-c2ccnn2C)c2ccnc(-c3ccn[nH]3)c2n1 (centres undefined) + CN(C)c1ccc(Nc2c3ccc(NC(=O)CCN4CCCC4)cc3nc3cc(NC(=O)CCN4CCCC4)ccc23)cc1
inactive: viability, T/C [1] 86.1% | viability, T/C [2] 30.1% | viability, T/C [3] 19.8% | viability, T/C [4] 20.6% | viability, T/C [5] 26.6% | viability, T/C [6] 33.5% | viability, T/C [7] 66.2% | viability, T/C [8] 33.7% | viability, T/C [9] 21.2% | viability, T/C [10] 20.9% | viability, T/C [11] 26.8% | viability, T/C [12] 40.1% | viability, T/C [13] 69.6% | viability, T/C [14] 31.2% | viability, T/C [15] 15.5% | viability, T/C [16] 19.8% | viability, T/C [17] 31.2% | viability, T/C [18] 39.2% | viability, T/C [19] 66.5% | viability, T/C [20] 31.1% | viability, T/C [21] 16% | viability, T/C [22] 18.4% | viability, T/C [23] 34.4% | viability, T/C [24] 30.2% | viability, T/C [25] 68% | viability, T/C [26] 28.4% | viability, T/C [27] 17.4% | viability, T/C [28] 17.5% | viability, T/C [29] 25.1% | viability, T/C [30] 33.6% | viability, T/C [31] 50.1% | viability, T/C [32] 36% | viability, T/C [33] 21.6% | viability, T/C [34] 23.8% | viability, T/C [35] 23.2% | viability, T/C [36] 26.6%
66.1 nM: IC50 (second compound 0.0316 µM)
52.6 nM: IC50 (second compound 3.16 µM)
32.6 nM: IC50 (second compound 10 µM)
54.6 nM: IC50 (second compound 0.1 µM)
55.7 nM: IC50 (second compound 0.316 µM)
52.7 nM: IC50 (second compound 1 µM)

CC1COCCN1c1cc(C2(O)CC3CCC(C2)O3)c2cnn(-c3ccn[nH]3)c2n1 (centres undefined) + CN(C)c1ccc(Nc2c3ccc(NC(=O)CCN4CCCC4)cc3nc3cc(NC(=O)CCN4CCCC4)ccc23)cc1
31.6 nM: IC50 (second compound 0.316 µM)
44.6 nM: IC50 (second compound 0.0316 µM)
< 31.6 nM: IC50 (second compound 3.16 µM) | IC50 (second compound 10 µM)
inactive: viability, T/C [1] 60.7% | viability, T/C [2] 20.8% | viability, T/C [3] 22.1% | viability, T/C [4] 27.8% | viability, T/C [5] 32.3% | viability, T/C [6] 20.1% | viability, T/C [7] 52.4% | viability, T/C [8] 18.3% | viability, T/C [9] 24% | viability, T/C [10] 26.1% | viability, T/C [11] 32.9% | viability, T/C [12] 19.2% | viability, T/C [13] 50.1% | viability, T/C [14] 20.1% | viability, T/C [15] 23.8% | viability, T/C [16] 31.3% | viability, T/C [17] 31.9% | viability, T/C [18] 19.6% | viability, T/C [19] 53.5% | viability, T/C [20] 17.6% | viability, T/C [21] 17.9% | viability, T/C [22] 26.4% | viability, T/C [23] 37.4% | viability, T/C [24] 14.2% | viability, T/C [25] 47% | viability, T/C [26] 21.5% | viability, T/C [27] 18.9% | viability, T/C [28] 27.6% | viability, T/C [29] 34.1% | viability, T/C [30] 17.2% | viability, T/C [31] 49.3% | viability, T/C [32] 30.1% | viability, T/C [33] 27.9% | viability, T/C [34] 25.3% | viability, T/C [35] 28.4% | viability, T/C [36] 13.3%
36.1 nM: IC50 (second compound 1 µM)
35.1 nM: IC50 (second compound 0.1 µM)
